Measurements reported in ChEMBL document CHEMBL3853264 (Medchemcomm, 2016).
pIC50, pKi: −log10 of the molar value.

What was measured:
Rattus norvegicus [1] = experiment: Toxicity in rat up to 300 mg/kg/day, po measured over 14 days by necropsy; type: organism-based; conditions: in vivo, 336 h
[2] = Toxicity in dog up to 100 mg/kg/day, po measured over 14 days by clinical pathology test; type: organism-based, Canis lupus familiaris; conditions: in vivo, 336 h
[3] = target: Organic anion transporter 3 (Homo sapiens, UniProt Q8TCC7); experiment: Inhibition of OAT3 (unknown origin)
[4] = Mutagenicity in […] by Ames test in absence of […] fraction; type: toxicity
BCRP (ABCG2) = BCRP (ABCG2) (Homo sapiens, UniProt Q9UNQ0); experiment: Substrate activity at BCRP (unknown origin) assessed as efflux ratio of permeability; type: ADME; conditions: not told
Cytochrome P450 2C8 = Cytochrome P450 2C8 (Homo sapiens, UniProt P10632); experiment: Inhibition of CYP2C8 (unknown origin); type: ADME
[5] = Oral bioavailability in rat at 1 mg/kg; type: ADME, organism-based; conditions: in vivo
[6] = target: Solute carrier organic anion transporter family member 1B1 (Homo sapiens, UniProt Q9Y6L6); experiment: Drug uptake assessed as human OATP1B1-mediated drug accumulation by cell-based assay relative to wild type protein; type: ADME
[7] = Fraction unbound in rat plasma; type: ADME, cell-free
[8] = Intrinsic clearance in dog hepatocytes assessed per 10^6 cells; type: ADME, cell-based, Canis lupus familiaris, Hepatocyte; conditions: read-out: CLH
[9] = Unbound Cmax in rat at 300 mg/kg, po administered as single dose measured on day 14; type: ADME, organism-based; conditions: in vivo
[10] = Intrinsic clearance in dog liver microsomes; type: ADME, Canis lupus familiaris; conditions: read-out: CLH
[11] = Half life in rat at 0.5 mg/kg, iv and 1 mg/kg, po; type: ADME, organism-based; conditions: in vivo
[12] = target: Sodium channel protein type 5 subunit alpha (Homo sapiens, UniProt Q14524); experiment: Inhibition of human NaV1.5 expressed in HEK293 cells by patch clamp method; type: cell-based
[13] = target: Solute carrier organic anion transporter family member 1B3 (Homo sapiens, UniProt Q9NPD5); experiment: Drug uptake assessed as human OATP1B3-mediated drug accumulation by cell-based assay relative to wild type protein; type: ADME
[14] = target: Solute carrier family 22 member 6 (Homo sapiens, UniProt Q4U2R8); experiment: Inhibition of OAT1 (unknown origin)
[15] = Average plasma concentration in rat at 300 mg/kg, po administered as single dose measured on day 14; type: ADME, organism-based; conditions: in vivo
[16] = Fraction unbound in human plasma; type: ADME, cell-free
[17] = Unbound Cmax in dog at 100 mg/kg, po administered as single dose measured on day 14; type: ADME, organism-based, Canis lupus familiaris; conditions: in vivo
[18] = Volume of distribution at steady state in rat at 0.5 mg/kg, iv and 1 mg/kg, po; type: ADME, organism-based; conditions: in vivo, read-out: Vdss
Cytochrome P450 2C19 = Cytochrome P450 2C19 (Homo sapiens, UniProt P33261); experiment: Inhibition of CYP2C19 (unknown origin); type: ADME
[19] = Inhibition of GABAA receptor (unknown origin); parameters: species or system Homo sapiens
Cytochrome P450 1A2 = Cytochrome P450 1A2 (Homo sapiens, UniProt P05177); experiment: Inhibition of CYP1A2 (unknown origin); type: ADME
[20] = Toxicity in dog assessed as emesis at 100 mg/kg/day, po measured over 14 days by histologic test; type: organism-based, Canis lupus familiaris; conditions: in vivo, 336 h
Cytochrome P450 3A4 = Cytochrome P450 3A4 (Homo sapiens, UniProt P08684); experiment: Inhibition of CYP3A4 (unknown origin); type: ADME
[21] = Average plasma concentration in dog at 100 mg/kg, po administered as single dose measured on day 14; type: ADME, organism-based, Canis lupus familiaris; conditions: in vivo
[22] = Fraction unbound in dog plasma; type: ADME, cell-free, Canis lupus familiaris
[23] = target: Voltage-gated inwardly rectifying potassium channel KCNH2 (Homo sapiens, UniProt Q12809); experiment: Inhibition of human ERG by patch clamp method
[24] = Permeability in RRCK cells; type: ADME, cell-based, Canis lupus familiaris, MDCKII-LE; conditions: dog, MDCK; read-out: permeability
[25] = Cytotoxicity against THLE cells; type: toxicity, cell-based; conditions: human
[26] = Drug excretion in bile of bile duct cannulated rat; type: ADME; conditions: read-out: Drug excretion
[27] = Toxicity in dog assessed as salivation at 100 mg/kg/day, po measured over 14 days by histologic test; type: organism-based, Canis lupus familiaris; conditions: in vivo, 336 h
Rattus norvegicus [28] = experiment: Cardiovascular toxicity in rat up to 30 mg/kg/day, po measured over 14 days; type: organism-based; conditions: in vivo, 336 h

Sequence of Solute carrier organic anion transporter family member 1B3 (Q9NPD5 whole entry): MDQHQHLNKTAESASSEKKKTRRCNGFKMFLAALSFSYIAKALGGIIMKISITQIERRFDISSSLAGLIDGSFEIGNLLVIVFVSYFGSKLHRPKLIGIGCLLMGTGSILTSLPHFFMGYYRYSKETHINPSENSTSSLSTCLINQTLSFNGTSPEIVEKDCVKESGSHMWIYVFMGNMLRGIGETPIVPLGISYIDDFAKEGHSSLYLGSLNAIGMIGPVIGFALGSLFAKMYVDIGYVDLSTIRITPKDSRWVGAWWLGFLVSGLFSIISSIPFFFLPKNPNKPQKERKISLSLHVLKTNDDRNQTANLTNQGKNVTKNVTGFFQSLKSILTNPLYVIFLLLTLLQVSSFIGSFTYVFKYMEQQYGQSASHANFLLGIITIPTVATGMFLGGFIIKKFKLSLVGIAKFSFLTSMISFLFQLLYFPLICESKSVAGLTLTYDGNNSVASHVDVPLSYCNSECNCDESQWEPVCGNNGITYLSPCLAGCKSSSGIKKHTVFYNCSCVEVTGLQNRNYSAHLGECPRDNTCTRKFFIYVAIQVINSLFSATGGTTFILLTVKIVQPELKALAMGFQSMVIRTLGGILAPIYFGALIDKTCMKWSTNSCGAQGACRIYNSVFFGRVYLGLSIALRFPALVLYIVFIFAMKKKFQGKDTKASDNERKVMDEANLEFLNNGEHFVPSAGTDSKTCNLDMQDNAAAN
Sequence of Solute carrier family 22 member 6 (Q4U2R8 whole entry): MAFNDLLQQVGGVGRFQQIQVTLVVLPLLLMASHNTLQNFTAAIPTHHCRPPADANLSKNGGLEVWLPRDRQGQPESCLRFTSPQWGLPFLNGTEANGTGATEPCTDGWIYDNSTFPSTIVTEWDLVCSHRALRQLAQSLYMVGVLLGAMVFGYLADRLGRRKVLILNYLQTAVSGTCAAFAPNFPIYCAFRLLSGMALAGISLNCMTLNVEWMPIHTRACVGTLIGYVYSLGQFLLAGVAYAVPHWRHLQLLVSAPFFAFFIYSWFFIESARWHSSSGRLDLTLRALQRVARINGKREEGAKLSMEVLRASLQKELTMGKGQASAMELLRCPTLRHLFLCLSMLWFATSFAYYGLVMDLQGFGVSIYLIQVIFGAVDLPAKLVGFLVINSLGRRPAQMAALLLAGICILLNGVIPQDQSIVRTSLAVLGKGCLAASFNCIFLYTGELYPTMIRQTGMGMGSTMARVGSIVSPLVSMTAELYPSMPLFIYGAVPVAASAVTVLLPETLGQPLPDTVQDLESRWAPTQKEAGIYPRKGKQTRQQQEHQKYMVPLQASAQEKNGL
Sequence of Organic anion transporter 3 (Q8TCC7 whole entry): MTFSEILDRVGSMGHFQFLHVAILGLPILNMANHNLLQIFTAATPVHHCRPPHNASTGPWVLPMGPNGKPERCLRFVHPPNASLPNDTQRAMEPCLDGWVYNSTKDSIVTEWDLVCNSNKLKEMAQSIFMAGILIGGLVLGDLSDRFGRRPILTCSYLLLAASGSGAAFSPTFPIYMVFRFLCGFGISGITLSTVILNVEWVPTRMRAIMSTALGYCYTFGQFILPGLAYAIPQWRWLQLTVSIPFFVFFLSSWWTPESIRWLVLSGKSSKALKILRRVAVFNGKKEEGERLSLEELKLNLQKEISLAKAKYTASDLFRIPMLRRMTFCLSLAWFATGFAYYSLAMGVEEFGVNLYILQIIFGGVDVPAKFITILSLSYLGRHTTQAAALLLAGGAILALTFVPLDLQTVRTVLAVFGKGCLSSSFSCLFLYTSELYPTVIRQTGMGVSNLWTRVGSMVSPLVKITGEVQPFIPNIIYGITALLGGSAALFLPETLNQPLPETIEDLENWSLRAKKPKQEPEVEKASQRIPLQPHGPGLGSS
Sequence of Solute carrier organic anion transporter family member 1B1 (Q9Y6L6 whole entry): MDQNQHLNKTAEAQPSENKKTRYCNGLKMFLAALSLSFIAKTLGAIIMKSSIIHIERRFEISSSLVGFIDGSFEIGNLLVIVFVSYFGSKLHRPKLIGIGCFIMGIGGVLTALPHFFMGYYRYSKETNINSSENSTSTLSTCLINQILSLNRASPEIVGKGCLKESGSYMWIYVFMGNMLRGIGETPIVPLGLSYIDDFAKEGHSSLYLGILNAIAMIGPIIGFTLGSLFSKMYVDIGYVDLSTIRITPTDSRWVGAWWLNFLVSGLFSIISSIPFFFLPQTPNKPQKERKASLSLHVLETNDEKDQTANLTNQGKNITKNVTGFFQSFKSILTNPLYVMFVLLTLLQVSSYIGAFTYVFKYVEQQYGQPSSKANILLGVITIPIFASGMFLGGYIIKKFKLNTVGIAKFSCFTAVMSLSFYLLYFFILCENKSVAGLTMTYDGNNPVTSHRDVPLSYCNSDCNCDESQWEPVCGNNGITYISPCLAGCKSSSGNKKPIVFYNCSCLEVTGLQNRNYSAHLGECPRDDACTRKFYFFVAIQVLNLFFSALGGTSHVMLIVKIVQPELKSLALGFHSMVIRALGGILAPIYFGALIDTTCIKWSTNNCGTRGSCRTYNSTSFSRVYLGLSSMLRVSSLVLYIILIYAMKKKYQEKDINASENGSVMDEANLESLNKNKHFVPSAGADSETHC
Sequence of Cytochrome P450 2C8 (P10632 whole entry): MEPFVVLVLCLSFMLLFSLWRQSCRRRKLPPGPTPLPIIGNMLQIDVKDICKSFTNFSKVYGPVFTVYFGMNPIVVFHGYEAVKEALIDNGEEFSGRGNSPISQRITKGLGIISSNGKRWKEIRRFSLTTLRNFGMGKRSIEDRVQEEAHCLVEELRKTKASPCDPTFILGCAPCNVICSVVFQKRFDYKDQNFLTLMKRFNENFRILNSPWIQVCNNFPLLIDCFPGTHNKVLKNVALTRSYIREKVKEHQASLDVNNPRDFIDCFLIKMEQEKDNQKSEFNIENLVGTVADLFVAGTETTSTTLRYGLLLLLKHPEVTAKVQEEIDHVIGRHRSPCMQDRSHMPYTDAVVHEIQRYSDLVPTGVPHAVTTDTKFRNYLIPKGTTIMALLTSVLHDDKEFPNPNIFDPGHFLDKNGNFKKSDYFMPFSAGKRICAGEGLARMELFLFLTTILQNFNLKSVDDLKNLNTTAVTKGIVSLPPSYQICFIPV
Sequence of Sodium channel protein type 5 subunit alpha (Q14524 whole entry): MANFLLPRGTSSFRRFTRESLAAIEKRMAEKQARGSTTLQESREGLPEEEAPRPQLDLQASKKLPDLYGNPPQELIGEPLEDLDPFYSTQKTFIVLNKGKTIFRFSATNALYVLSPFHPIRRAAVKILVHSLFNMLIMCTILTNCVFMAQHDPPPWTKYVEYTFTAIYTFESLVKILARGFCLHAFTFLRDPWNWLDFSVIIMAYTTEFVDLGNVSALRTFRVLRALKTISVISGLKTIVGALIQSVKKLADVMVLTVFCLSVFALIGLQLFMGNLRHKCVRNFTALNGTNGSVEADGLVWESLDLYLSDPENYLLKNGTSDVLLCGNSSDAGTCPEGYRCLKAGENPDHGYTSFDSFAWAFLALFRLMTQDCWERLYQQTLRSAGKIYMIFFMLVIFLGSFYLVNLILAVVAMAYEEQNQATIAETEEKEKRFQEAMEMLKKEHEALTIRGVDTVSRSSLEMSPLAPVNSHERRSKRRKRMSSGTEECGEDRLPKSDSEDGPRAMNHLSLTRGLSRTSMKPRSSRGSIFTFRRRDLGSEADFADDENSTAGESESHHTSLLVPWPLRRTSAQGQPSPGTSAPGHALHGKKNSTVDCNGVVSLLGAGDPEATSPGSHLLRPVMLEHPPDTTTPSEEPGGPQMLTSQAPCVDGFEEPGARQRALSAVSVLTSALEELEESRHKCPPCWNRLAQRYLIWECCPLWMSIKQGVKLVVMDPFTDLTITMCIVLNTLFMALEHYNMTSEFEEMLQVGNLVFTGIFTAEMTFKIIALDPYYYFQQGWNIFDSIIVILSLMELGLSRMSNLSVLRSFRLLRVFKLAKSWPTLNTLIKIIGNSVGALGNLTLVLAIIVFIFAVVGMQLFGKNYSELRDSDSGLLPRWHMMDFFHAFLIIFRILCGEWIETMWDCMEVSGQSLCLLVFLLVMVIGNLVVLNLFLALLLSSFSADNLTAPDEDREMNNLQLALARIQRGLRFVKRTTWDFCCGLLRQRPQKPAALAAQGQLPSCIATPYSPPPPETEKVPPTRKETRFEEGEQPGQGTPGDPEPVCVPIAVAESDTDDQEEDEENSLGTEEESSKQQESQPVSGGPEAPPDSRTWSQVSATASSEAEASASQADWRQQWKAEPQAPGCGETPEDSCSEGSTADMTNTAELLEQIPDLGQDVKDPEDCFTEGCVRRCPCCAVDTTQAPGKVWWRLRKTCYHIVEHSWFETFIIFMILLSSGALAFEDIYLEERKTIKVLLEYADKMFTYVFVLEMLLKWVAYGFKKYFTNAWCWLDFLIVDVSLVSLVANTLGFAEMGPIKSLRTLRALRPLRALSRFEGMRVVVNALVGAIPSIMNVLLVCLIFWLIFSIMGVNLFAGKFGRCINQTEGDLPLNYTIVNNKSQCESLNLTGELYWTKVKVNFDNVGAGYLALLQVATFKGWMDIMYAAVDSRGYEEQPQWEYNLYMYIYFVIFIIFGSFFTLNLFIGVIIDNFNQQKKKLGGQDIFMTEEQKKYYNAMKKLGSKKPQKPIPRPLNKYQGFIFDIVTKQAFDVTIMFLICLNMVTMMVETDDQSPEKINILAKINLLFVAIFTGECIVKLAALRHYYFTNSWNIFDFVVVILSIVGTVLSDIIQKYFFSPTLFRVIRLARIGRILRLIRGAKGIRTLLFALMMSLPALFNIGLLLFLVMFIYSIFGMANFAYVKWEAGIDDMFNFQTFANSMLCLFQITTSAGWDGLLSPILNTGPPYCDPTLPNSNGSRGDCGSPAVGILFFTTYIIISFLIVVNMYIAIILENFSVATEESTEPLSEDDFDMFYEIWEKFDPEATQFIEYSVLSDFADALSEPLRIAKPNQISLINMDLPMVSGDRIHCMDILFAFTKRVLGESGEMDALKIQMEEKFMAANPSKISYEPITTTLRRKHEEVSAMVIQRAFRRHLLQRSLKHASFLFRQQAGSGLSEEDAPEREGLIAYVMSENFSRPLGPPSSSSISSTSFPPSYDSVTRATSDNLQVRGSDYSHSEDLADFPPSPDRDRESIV

N#Cc1cc(S(=O)(=O)Nc2ccc(F)cn2)ccc1Oc1ccc(CO)c(Cl)c1
Activity (Rattus norvegicus [1]): Non-Toxic
Activity [2]: Non-Toxic
pIC50 [3]: 6.30
Activity [4]: Non-Toxic
efflux ratio (BCRP (ABCG2)): 34
pIC50 (Cytochrome P450 2C8): 5.00
bioavailability [5]: 50%
fold change (FC) [6]: 1.181
fraction unbound [7]: 0.0043
hepatocyte CLint [8]: < 6 µL/min/1e6 cells
fCmax [9]: 537 nM
microsomal CLint [10]: < 18 µL/min/mg
half-life [11]: 3.9 h
pIC50 [12]: < 4.52
fold change (FC) [13]: 1.124
pIC50 [14]: 4.84
Cave [15]: 240 nM
fraction unbound [16]: 0.0083
fCmax [17]: 3.905 µM
Vd [18]: 0.27 L/kg
pIC50 (Cytochrome P450 2C19): 4.76
pKi [19]: < 5.00
pIC50 (Cytochrome P450 1A2): < 4.52
Activity [20]: Toxic
pIC50 (Cytochrome P450 3A4): < 4.52
Cave [21]: 1019 nM
fraction unbound [22]: 0.014
pIC50 [23]: < 4.00
Papp [24]: 12 ×10⁻⁶ cm/s
Activity [25]: 105 µM
dose excreted [26]: 10%
Activity [27]: Toxic
Activity (Rattus norvegicus [28]): Non-Toxic
